The source of these data is PMC8396344, “Palmitoylation of Prolactin-Releasing Peptide Increased Affinity for and Activation of the GPR10, NPFF-R2 and NPFF-R1 Receptors: In Vitro Study” (International Journal of Molecular Sciences, 2021).

The target of assay [1] is T1, GPR10 (Homo sapiens, UniProt P49683).
T1 construct: host or cells: CHO-K1
T1 sequence (P49683 1-370): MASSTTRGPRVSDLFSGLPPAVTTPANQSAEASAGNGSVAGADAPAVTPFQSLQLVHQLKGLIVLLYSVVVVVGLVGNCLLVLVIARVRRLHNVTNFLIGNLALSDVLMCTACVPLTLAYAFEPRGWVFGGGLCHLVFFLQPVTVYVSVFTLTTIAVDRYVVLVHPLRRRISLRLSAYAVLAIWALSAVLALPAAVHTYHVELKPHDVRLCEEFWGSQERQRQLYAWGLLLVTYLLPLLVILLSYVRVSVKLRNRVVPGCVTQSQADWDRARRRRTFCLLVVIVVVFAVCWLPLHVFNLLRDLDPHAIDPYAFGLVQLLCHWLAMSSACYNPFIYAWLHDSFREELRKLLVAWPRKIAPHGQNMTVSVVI
Description: Intracellular Ca^2+ mobilization, Fura-2, CHO-K1 cells expressing GPR10. It is filed as cell-based. Particulars: Fura 2 dye; peptides 10^−12 to 10^−5 M; repeated two times in duplicates. The procedure: Measuring the intracellular Ca^2+ level in CHO-K1 cells containing GRP10 was performed using the calcium-sensitive dye Fura-2 according to the manufacturer’s protocol (Molecular Devices, Sunnyvale, CA, USA). The day before the experiment, cells were seeded at 40,000 cells/well in 96-well plates in growth media and kept at 37 °C in an incubator with 5% CO2 overnight. Peptides were tested at concentrations from 10^−12 to 10^−5 M. Fura-2 fluorescent dye was detected using a FlexStation 3 fluorometric plate reader (Molecular Devices), and excitation was measured at 340 nm and 380 nm and emission at 510 nm.
(§1) Ca^2+ release assay data are shown as the percentage of maximal response, and the results were analyzed by nonlinear regression as log agonist versus response using GraphPad software. Data are representative of at least three experiments, each performed in duplicate.

Assay [2] addresses T2, KOR (Homo sapiens, UniProt P41145).
T2 construct: host or cells: CHO-K1
Description: cell-based.

In assay [3] the target is T3, MOR (Homo sapiens, UniProt P35372).
T3 construct: host or cells: U2OS
T3 sequence (P35372 whole entry): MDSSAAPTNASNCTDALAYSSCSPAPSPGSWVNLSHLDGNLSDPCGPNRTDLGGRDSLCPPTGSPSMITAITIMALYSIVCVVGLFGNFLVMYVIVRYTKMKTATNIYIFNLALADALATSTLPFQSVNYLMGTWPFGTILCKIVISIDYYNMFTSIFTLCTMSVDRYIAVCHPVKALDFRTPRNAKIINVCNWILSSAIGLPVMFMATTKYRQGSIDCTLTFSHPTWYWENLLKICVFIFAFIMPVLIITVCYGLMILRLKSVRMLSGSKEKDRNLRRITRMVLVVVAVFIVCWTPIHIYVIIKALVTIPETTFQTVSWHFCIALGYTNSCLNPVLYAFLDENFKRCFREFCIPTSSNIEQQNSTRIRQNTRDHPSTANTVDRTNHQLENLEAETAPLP
Nature of the assay: Beta-lactamase reporter gene assay (FRET), MOR. It is filed as cell-based. In general terms: A reporter such as luciferase makes a cellular process visible.

The target of assay [4] is T4, NPFF-R2 (Homo sapiens, UniProt Q9Y5X5).
T4 construct: host or cells: CHO-K1 (AequoScreen, co-expressing aequorin)
T4 sequence (Q9Y5X5 whole entry): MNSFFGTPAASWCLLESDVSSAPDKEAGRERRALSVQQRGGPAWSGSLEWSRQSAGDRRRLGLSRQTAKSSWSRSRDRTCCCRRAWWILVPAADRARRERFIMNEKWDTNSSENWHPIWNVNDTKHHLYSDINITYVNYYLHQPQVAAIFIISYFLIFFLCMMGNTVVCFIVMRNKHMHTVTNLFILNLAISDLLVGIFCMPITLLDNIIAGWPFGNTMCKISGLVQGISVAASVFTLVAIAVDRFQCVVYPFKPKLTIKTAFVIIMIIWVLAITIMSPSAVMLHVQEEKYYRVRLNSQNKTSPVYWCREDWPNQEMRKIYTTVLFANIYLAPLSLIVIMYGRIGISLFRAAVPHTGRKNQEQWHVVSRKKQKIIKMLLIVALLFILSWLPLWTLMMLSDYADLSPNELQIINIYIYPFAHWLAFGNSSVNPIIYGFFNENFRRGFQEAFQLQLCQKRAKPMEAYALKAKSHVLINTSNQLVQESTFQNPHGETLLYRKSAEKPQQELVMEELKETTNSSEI
Description: Intracellular Ca^2+ mobilization, AequoScreen CHO-K1 cells with NPFF-R2. The class given is cell-based. Particulars: CHO-K1 NPFF-R2 aequorin cells; peptides 10^−12 to 10^−5 M; mean ± SEM, three times in duplicates; read-out: EC50 intracellular Ca^2+ release, NPFF-R2. The protocol:
The intracellular Ca^2+ level was measured using the AequoScreen stable CHO-K1 cell line containing NPFF-R2 purchased from Perkin Elmer according to the manufacturer’s protocol. Cells at 80–90% confluence cultured in media without selective antibiotics were detached (PBS pH 7.4 + 0.5 mM EDTA) and centrifuged. Cells resuspended in phenol red-free DMEM with 0.1% protease-free BSA and 5 µM coelenterazine h (Thermo Fisher Scientific Inc. Brand) were seeded at 50,000 cells/well in 96-well plates and incubated in the dark at RT with gentle agitation for 4 h. Peptides were tested at concentrations from 10^−12 to 10^−5 M. Luminescent light emission was recorded using a FlexStation 3 plate reader.
as §1

The target in assay [5] is T5, NPFF-R1 (Homo sapiens, UniProt Q9GZQ6).
T5 construct: host or cells: CHO-K1 (isolated membranes)
T5 sequence (Q9GZQ6 whole entry): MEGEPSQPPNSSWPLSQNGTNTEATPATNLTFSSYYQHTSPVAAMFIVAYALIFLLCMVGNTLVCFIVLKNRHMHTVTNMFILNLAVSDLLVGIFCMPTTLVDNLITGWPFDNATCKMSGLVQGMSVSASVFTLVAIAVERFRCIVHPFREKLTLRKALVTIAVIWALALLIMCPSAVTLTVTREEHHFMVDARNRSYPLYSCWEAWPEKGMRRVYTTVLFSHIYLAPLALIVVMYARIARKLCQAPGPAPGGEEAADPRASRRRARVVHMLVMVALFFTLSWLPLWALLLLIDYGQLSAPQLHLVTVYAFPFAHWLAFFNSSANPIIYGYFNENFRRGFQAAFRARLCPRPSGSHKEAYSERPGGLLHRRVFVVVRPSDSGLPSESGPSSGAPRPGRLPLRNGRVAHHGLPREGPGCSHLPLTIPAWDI
Description: Competitive and saturation binding, [^125I]-1DMe, membranes of CHO-K1 cells with NPFF-R1. The procedure:
Experiments were carried out in duplicate at least three times, and Ki was calculated using the Cheng-Prusoff equation.
Data were analyzed by GraphPad Software (San Diego, CA, USA) and are presented as the means ± SEM. The saturation and competitive binding experiments were analyzed according to [46] using the Cheng-Prusoff equation [33]. The competitive binding curves were plotted compared to the best fit for single-binding site models, and half maximal inhibitory concentration (IC50) values were obtained from nonlinear regression analysis. From saturation binding experiments, the dissociation constant (Kd) and number of binding sites/cell (Bmax) were calculated. Inhibition constants (Ki) were calculated from IC50 values, Kd and the concentration of radioligands.

Assay [6] deals with T1, GPR10. Description: Beta-lactamase reporter gene assay (FRET), GPR10. The class given is cell-based. The settings on record: β-lactamase assay, agonist mode, CHO-K1 cells; mean ± SEM, 2–3 independent experiments in duplicates.
Assay [7] deals with T1, GPR10. Nature of the assay: Competitive binding, [^125I]-PrRP31, CHO-K1 cells expressing GPR10.
The target in assay [8] is T6, GHSR (Homo sapiens, UniProt Q92847).
T6 construct: host or cells: U2OS
T6 sequence (Q92847 whole entry): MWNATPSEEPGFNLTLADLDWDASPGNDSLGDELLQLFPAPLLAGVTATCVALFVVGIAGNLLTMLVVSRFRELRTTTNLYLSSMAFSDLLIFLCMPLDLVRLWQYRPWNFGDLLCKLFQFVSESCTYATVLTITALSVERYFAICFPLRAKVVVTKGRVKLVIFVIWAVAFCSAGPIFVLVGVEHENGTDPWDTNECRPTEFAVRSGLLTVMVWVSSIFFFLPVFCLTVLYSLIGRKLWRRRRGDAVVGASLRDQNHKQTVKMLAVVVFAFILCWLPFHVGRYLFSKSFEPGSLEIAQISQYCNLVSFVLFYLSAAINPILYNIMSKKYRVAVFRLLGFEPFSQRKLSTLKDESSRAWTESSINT
Nature of the assay: Beta-lactamase reporter gene assay (FRET), GHSR. It is filed as cell-based.

The term EC50 denotes the midpoint of the concentration-response curve. As a reminder, the Ki is the equilibrium dissociation constant of an inhibitor or competing ligand from its target. Lower therefore signals a stronger hold on the target.

No end group written: not given here.

T2 sequence (P41145 whole entry): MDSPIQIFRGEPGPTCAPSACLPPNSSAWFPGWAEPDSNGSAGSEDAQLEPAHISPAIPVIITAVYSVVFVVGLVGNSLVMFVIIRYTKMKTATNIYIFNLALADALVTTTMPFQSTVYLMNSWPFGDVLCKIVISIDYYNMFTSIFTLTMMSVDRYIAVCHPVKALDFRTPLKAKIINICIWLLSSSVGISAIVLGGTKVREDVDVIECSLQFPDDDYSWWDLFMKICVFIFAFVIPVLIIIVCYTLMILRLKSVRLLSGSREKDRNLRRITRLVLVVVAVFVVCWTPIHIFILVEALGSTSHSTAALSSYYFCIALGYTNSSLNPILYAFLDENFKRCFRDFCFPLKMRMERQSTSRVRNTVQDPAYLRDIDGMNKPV

With `CCCCCCCCCCCCCCCC(=O)N[C@@H](CO)C(=O)N[C@@H](CCCNC(=N)N)C(=O)N[C@H](C(=O)N[C@@H](Cc1c[nH]cn1)C(=O)N[C@@H](CCCNC(=N)N)C(=O)N[C@@H](Cc1c[nH]cn1)C(=O)N[C@@H](CO)C(=O)N[C@@H](CCSC)C(=O)N[C@@H](CCC(=O)O)C(=O)N[C@H](C(=O)N[C@@H](CCCNC(=N)N)C(=O)N[C@H](C(=O)N1CCC[C@H]1C(=O)N[C@@H](CC(=O)O)C(=O)N[C@H](C(=O)N[C@@H](CC(N)=O)C(=O)N1CCC[C@H]1C(=O)N[C@@H](C)C(=O)N[C@@H](Cc1c[nH]c2ccccc12)C(=O)N[C@@H](Cc1ccc(O)cc1)C(=O)N[C@@H](C)C(=O)N[C@@H](CO)C(=O)N[C@@H](CCCNC(=N)N)C(=O)NCC(=O)N[C@H](C(=O)N[C@@H](CCCNC(=N)N)C(=O)N1CCC[C@H]1C(=O)N[C@H](C(=O)NCC(=O)N[C@@H](CCCNC(=N)N)C(=O)N[C@@H](Cc1ccccc1)C(N)=O)C(C)C)[C@@H](C)CC)[C@@H](C)CC)[C@@H](C)O)[C@@H](C)CC)[C@@H](C)O` [Palm-PrRP31], the “Ca^2+ mobilization in CHO-K1 cells expressing GPR10” value in assay [1] is recorded as “stimulated Ca^2+ mobilization”. Moreover, the EC50 in assay [2] is greater than 10000 nM; in assay [3], greater than 10000 nM; in assay [4], 14.2 ± 1.52 nM. Also, in assay [5], the affinity, expressed as Ki, was 0.78 ± 0.11 nM.
In the case of “SRAHQHSMETRTPDINPAWYTGRGIRPVGRF-NH2 [PrRP31, prolactin-releasing peptide 31, reference compound]”, the EC50 in assay [2] is greater than 10000 nM; in assay [6], 0.53 ± 0.0705 nM; in assay [8], greater than 10000 nM; in assay [3], greater than 10000 nM; in assay [4], 89.33 ± 0.84 nM. The Ki is 4.58 ± 0.66 nM in assay [7] and 40.4 ± 4.2 nM in assay [5].
